We go through 15 compounds from ChEMBL document CHEMBL1143562 (J Med Chem, 2005).

In general, pIC50 refers to the negative decadic logarithm of the IC50, by convention in mol/L. Lower therefore signals a high IC50.

pIC50: −log10 of the molar value. Calls of active or inactive are those of the source. The rule behind the calls is not given here.

One assay has as its system Mus musculus. The assay is described as follows: Percent protection of DBA/2 mice from audiogenically induced tonic seizures at a dose of 30 mg/kg of test compound. The assay is classed as functional.
Assay [1] is described as follows: Inhibition of [3H]leucine uptake into CHO cells by L-amino acid transporters. The assay is classed as functional, cell-based. Conditions: Cricetulus griseus.
Assay [2] is described as follows: Inhibition of [3H]gabapentin binding to pig brain membranes. The arrangement: species or system Sus scrofa, Membrane.
Assay [3] relates to Rattus norvegicus. The assay can be described thus: Inhibition of carrageenan-induced thermal hyperalgesia in rats 1 hr after administration of a 30 mg/kg dose of test compound; NA-not active. Type of assay: functional, organism-based. On the set-up: dose 30 mg/kg.
For assay [4], the system named is Rattus norvegicus. The assay can be described thus: The ability of 30 mg/kg oral dose of compound to restore punished drinking behavior in rats expressed as percent reference activity (PRA); NA-not active. The assay is classed as functional, organism-based. On the set-up: dose 30 mg/kg.
Assay [5] deals with Rattus norvegicus. The assay can be described thus: Inhibition of carrageenan-induced thermal hyperalgesia in rats 1 hr after administration of a 30 mg/kg dose of test compound. Type of assay: functional.
Assay [6] relates to Rattus norvegicus. The assay can be described thus: The ability of 30 mg/kg oral dose of compound to restore punished drinking behavior in rats expressed as percent reference activity (PRA). The assay is classed as functional.

In turn, `CC(C)C[C@@H](CC(=O)O)[C@H](C)N` gave a Protection in the assay on Mus musculus of 0%. Moreover, the values for the pIC50 in assay [1] and in assay [2] were below 2.00 and 7.41, respectively. In addition, in the assay on Rattus norvegicus [3], the CITH result is “inactive”. For the same compound, the “WLC PRA” value in the assay on Rattus norvegicus [4] was “inactive”.

In the assay on Mus musculus, `CC(C)[C@@H](C)[C@H](CN)CC(=O)O` displayed a Protection of 100%. For the same compound, the negative-log IC50 (pIC50) in assay [1] is 3.80; in assay [2], 7.68. The CITH in the assay with Rattus norvegicus [5] stood at 71. The “WLC PRA” value in the assay with Rattus norvegicus [6] is 152.

On to `CCC[C@@H](CC(=O)O)[C@@H](C)N`, for which the Protection in the assay on Mus musculus amounted to 0%. The figures for the negative logarithm of the IC50 (pIC50) in assay [1] and in assay [2] were below 2.08 and 5.89, respectively. Besides, the CITH entry in the assay on Rattus norvegicus [3] was “inactive”. In addition, the “WLC PRA” value in the assay on Rattus norvegicus [4] was “inactive”.

The compound `NCC1(CC(=O)O)CCCCC1` [GABAPENTIN] returned a Protection in the assay with Mus musculus of 100%. Besides, the results for the negative logarithm of the IC50 (pIC50) in assay [1] and in assay [2] were 4.52 and 7.15, respectively. In addition, the CITH in the assay with Rattus norvegicus [5] is on record as 48. Besides, in the assay on Rattus norvegicus [6], the “WLC PRA” value is 60.

Take `CC(C)CC(C)(CN)CC(=O)O` (stereo not drawn): the Protection with Mus musculus came out at 0%. In assay [1], this compound showed a pIC50 of 4.05. The CITH result in the assay on Rattus norvegicus [3] was “inactive”. For the same compound, the “WLC PRA” value in the assay on Rattus norvegicus [4] is “inactive”.

With `CCC(CN)(CC(=O)O)CC(C)C` (stereo not drawn), the Protection in the assay with Mus musculus is reported as 20%. The figures for the pIC50 in assay [1] and in assay [2] were 4.22 and 5.07, respectively. Besides, in the assay with Rattus norvegicus [4], the “WLC PRA” value is “inactive”.

For `CC(C)C[C@H](CN)CC(=O)O` [PREGABALIN], in the assay with Mus musculus, the Protection amounted to 100%. The compound further showed a pIC50 in assay [1] of 3.80. Also, the CITH in the assay with Rattus norvegicus [5] is on record as 52. Moreover, in the assay on Rattus norvegicus [6], the “WLC PRA” value was determined as 100.

Turning to `CC(C)C[C@@H](CN)CC(=O)O`, the Protection in the assay with Mus musculus is reported as 0%. In addition, the negative-log IC50 (pIC50) in assay [1] was 3.45. Besides, in the assay with Rattus norvegicus [3], the CITH entry is “inactive”. Further, in the assay on Rattus norvegicus [4], the “WLC PRA” value was “inactive”.

In turn, `CCC(CC)C(CN)CC(=O)O` (stereo not drawn) gave a Protection in the assay on Mus musculus of 20%. The figures for the pIC50 in assay [1] and in assay [2] were 3.84 and 6.69, respectively. Moreover, in the assay with Rattus norvegicus [3], the CITH entry was “inactive”. In the assay with Rattus norvegicus [4], the “WLC PRA” value is “inactive”.

For `CC(C)C[C@H](CN)[C@H](C)C(=O)O`, the Protection in the assay with Mus musculus turned out to be 0%. Moreover, the negative logarithm of the IC50 (pIC50) in assay [1] is 3.93; in assay [2], below 5.00. The “WLC PRA” value in the assay with Rattus norvegicus [4] is “inactive”.

`CC(C)[C@H](C)[C@H](CN)CC(=O)O` gave a Protection with Mus musculus of 20%. The compound also had a pIC50 in assay [1] of 4.55. In the assay with Rattus norvegicus [3], the CITH entry is “inactive”. Also, the “WLC PRA” value with Rattus norvegicus [4] is “inactive”.

In the assay on Mus musculus, `CCCC[C@@H](CC(=O)O)[C@@H](C)N` had a Protection of 0%. Also, the negative-log IC50 (pIC50) in assay [1] was below 2.08; in assay [2], 5.99. The CITH result in the assay on Rattus norvegicus [3] was “inactive”. In addition, in the assay on Rattus norvegicus [4], the “WLC PRA” value is “inactive”.

In the assay with Mus musculus, `CCC(CC)CC(CN)CC(=O)O` (stereo not drawn) came in with a Protection of 0%. For the same compound, the values for the pIC50 in assay [1] and in assay [2] were 3.85 and 5.88, respectively. For the same compound, the CITH entry in the assay with Rattus norvegicus [3] was “inactive”. The “WLC PRA” value in the assay with Rattus norvegicus [4] is “inactive”.

For the compound `CC(C)C[C@@H](CC(=O)O)[C@@H](C)N`, the Protection in the assay on Mus musculus is listed as 0%. In addition, the pIC50 in assay [1] was below 1.00; in assay [2], 6.32. In the assay with Rattus norvegicus [3], the CITH entry is “inactive”. Also, the “WLC PRA” value with Rattus norvegicus [4] was “inactive”.

As to `CC(C)C[C@@H](CCN)C(=O)O`, the Protection in the assay with Mus musculus came to 0%. Moreover, the pIC50 in assay [1] was below 2.00; in assay [2], 5.69. Further, the “WLC PRA” value in the assay with Rattus norvegicus [4] is “inactive”.
